Data reported in ChEMBL document CHEMBL4402540, “Structure-Activity Relationship Studies of Small Molecule Modulators of the Staphylococcal Accessory Gene Regulator” (J Med Chem, 2020).
pIC50: −log10 of the molar value. Where a SMILES comes first, the peptide text is derived from it. Bridges are numbered along the chain shown (N, C = ends). [ ]: non-standard residue; d: D form. The star is where a group is joined. 6FAM = O=C1OC2(c3ccc(O)cc3Oc3cc(O)ccc32)c2cc(C(=O)*)ccc21; Biotin = O=C1N[C@H]2[C@H](CS[C@H]2CCCCC(=O)*)N1; NMeF = CN[C@@H](Cc1ccccc1)C(=O)O; NMeL = CN[C@@H](CC(C)C)C(=O)O; NMeS = CN[C@@H](CO)C(=O)O; Pent4ynoyl = C#CCCC(=O)*; Dap = NC[C@H](N)C(=O)O; AEEA = NCCOCCOCC(=O)O; Aoc = NCCCCCCCC(=O)O; Ava = NCCCCC(=O)O; Mpa = O=C(O)CCS

Key:
[1] = Inhibition of AgrC-1 in Staphylococcus aureus AH1677 incubated for 24 hrs by fluorescence assay
[2] = Inhibition of AgrC-2 in Staphylococcus aureus AH430 incubated for 24 hrs by fluorescence assay
[3] = Inhibition of AgrC-4 in Staphylococcus aureus AH1872 incubated for 24 hrs by fluorescence assay
[4] = Inhibition of AgrC-3 in Staphylococcus aureus AH1747 incubated for 24 hrs by fluorescence assay
[5] = Inhibition of AgrC-2 in Staphylococcus aureus
[6] = Inhibition of AgrC-1 in Staphylococcus aureus
[7] = Inhibition of AgrC-4 in Staphylococcus aureus
[8] = Inhibition of AgrC-2 in Staphylococcus aureus RN9372 incubated for 60 to 90 mins in presence of AIP agonist by beta-lactamase reporter gene assay
[9] = Inhibition of AgrC-1 in Staphylococcus aureus RN9222 incubated for 1 hr in presence of AIP agonist by beta-lactamase reporter gene assay
[10] = Inhibition of AgrC-2 in Staphylococcus aureus RN9372 incubated for 1 hr in presence of AIP agonist by beta-lactamase reporter gene assay
[11] = Inhibition of AgrC-1 Staphylococcus epidermidis AH3408 incubated for 24 hrs by fluorescence assay
[12] = target: T1, Chloramphenicol acetyltransferase (Staphylococcus epidermidis) (UniProt D2JCN2); test: Activation of Chloramphenicol acetyltransferase activity in Staphylococcus epidermidis Tu3298 at 200 nM and measured every 15 sec for 20 mins (reference value: 12.5 U/mg)
T1 sequence (whole entry): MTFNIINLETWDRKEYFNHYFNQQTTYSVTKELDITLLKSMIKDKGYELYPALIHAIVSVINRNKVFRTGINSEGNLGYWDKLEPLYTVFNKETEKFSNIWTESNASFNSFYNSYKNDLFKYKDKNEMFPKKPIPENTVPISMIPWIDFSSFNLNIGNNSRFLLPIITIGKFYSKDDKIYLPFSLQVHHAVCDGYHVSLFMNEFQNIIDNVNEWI

pIC50 [1] | pIC50 [2] | pIC50 [3] | pIC50 [4] | Molecule | other results
8.31 | 8.19 | 8.41 | 9.41 | O=C1COCCOCCNC(=O)[C@H](NC(=O)Cc2ccccc2)CSC(=O)[C@H](Cc2cccc(Cl)c2)NC(=O)[C@H](CC2CCCC2)N1 | 
6.33 | 6.32 | 5.46 | 6.90 | CC(=O)N[C@H]1CSC(=O)[C@H](Cc2ccccc2)NC(=O)[C@H](Cc2ccccc2)NC(=O)CCCCCCCCNC1=O | 
5.32 | 5.87 |  | 5.58 | CC(=O)N[C@H]1CNC(=O)[C@H](Cc2ccccc2)NC(=O)[C@H](Cc2ccccc2)NC(=O)CCCCCCCCNC1=O | 
 |  |  |  | CC[C@@H](C)[C@H](N)C(=O)N[C@H](CC(N)=O)C(=O)N(C)[C@@H]1CSC(=O)[C@@H](CC(C)C)N(C)C(=O)[C@@H](CC(C)C)NC(=O)CN(Cc2ccccc2)C(=O)[C@@H](CC(=O)O)NC1=O | pIC50 [5]: 8.71; pIC50 [6]: 8.35; pIC50 [7]: 8.18
8.70 | 7.75 | 8.32 | 10.04 | O=C1COCCOCCNC(=O)[C@H](NC(=O)Cc2ccccc2)CSC(=O)[C@H](Cc2cccc(F)c2)NC(=O)[C@H](CC2CCCC2)N1 | 
 |  |  |  | CC[C@@H](C)[C@H](N)C(=O)N[C@H](CC(N)=O)C(=O)N(C)[C@@H]1CSC(=O)[C@@H](CC(C)C)N(C)C(=O)[C@@H](CC(C)C)NC(=O)[C@@H](Cc2ccccc2)NC(=O)[C@@H](CC(=O)O)NC1=O | pIC50 [5]: 6.87; pIC50 [6]: 6.86; pIC50 [7]: 6.97
< 5.00 | < 5.00 | < 5.00 | < 5.00 | CC(=O)N[C@@H]1C/C=C\[C@H](Cc2ccccc2)NC(=O)[C@H](CC(C)C)NC(=O)[C@H](CO)NC(=O)[C@H](CO)NC1=O | 
 |  |  |  | CC[C@H](C)[C@H](NC(=O)c1ccc2c(c1)C1(OC2=O)c2ccc(O)cc2Oc2cc(O)ccc21)C(=O)N[C@@H](CC(N)=O)C(=O)N[C@H]1CSC(=O)[C@H](CC(C)C)NC(=O)[C@H](CC(C)C)NC(=O)[C@H](Cc2ccccc2)NC(=O)[C@H](C)NC1=O (6FAM-INCAFLL; thioester 3-C) | pIC50 [8]: 7.66
 |  |  |  | CC(=O)N[C@H]1CSC(=O)[C@H](Cc2ccccc2)NC(=O)[C@H](CC(C)C)NC(=O)[C@H](CO)NC(=O)CNC1=O (Ac-CGSLF; thioester 1-C) | pIC50 [9]: 6.72; pIC50 [10]: 5.94
7.00 | 7.01 | 6.85 | 8.03 | CC(=O)N[C@H]1CSC(=O)[C@H](Cc2ccccc2)NC(=O)[C@H](CC(C)C)NC(=O)[C@H](CO)NC(=O)[C@H](CO)NC1=O (Ac-CSSLF; thioester 1-C) | 
 |  |  |  | CC(=O)N[C@H]1CSC(=O)[C@H](Cc2ccccc2)N(C)C(=O)[C@H](CC(C)C)NC(=O)[C@H](CO)NC(=O)[C@H](CO)NC1=O (Ac-CSSL[NMeF]; thioester 1-C) | pIC50 [9]: < 4.52; pIC50 [10]: < 4.52
 |  |  |  | CC(=O)N[C@H]1CSC(=O)[C@H](Cc2ccccc2)NC(=O)[C@H](CC(C)C)N(C)C(=O)[C@H](CO)NC(=O)[C@H](CO)NC1=O (Ac-CSS[NMeL]F; thioester 1-C) | pIC50 [9]: < 4.52; pIC50 [10]: < 4.52
 |  |  |  | CC(=O)N[C@H]1CSC(=O)[C@H](Cc2ccccc2)NC(=O)[C@H](CC(C)C)NC(=O)[C@H](CO)N(C)C(=O)[C@H](CO)NC1=O (Ac-CS[NMeS]LF; thioester 1-C) | pIC50 [9]: 6.50; pIC50 [10]: 5.98
6.74 | 6.23 | 5.23 | 6.48 | CC(=O)N[C@H]1CSC(=O)[C@H](Cc2ccccc2)NC(=O)[C@H](Cc2ccccc2)NC(=O)COCCOCCNC1=O (Ac-C[AEEA]FF; thioester 1-C) | 
6.47 | 6.31 | 6.01 | 7.46 | CC(=O)N[C@H]1CSC(=O)[C@H](Cc2ccccc2)NC(=O)[C@H](Cc2ccccc2)NC(=O)CCCCCCCNC1=O (Ac-C[Aoc]FF; thioester 1-C) | 
 |  |  |  | CC(=O)N[C@H]1CSC(=O)[C@H](Cc2ccccc2)N(C)C(=O)[C@H](CC(C)C)NC(=O)CCCCNC1=O (Ac-C[Ava]L[NMeF]; thioester 1-C) | pIC50 [9]: 5.94; pIC50 [10]: 4.29
 |  |  |  | CC(=O)N[C@H]1CSC(=O)[C@H](Cc2ccccc2)NC(=O)[C@H](CC(C)C)NC(=O)[C@H](CO)NC(=O)[C@H](CO)N(C)C1=O (Ac-C[NMeS]SLF; thioester 1-C) | pIC50 [9]: 6.19; pIC50 [10]: 5.10

pIC50 [1] | pIC50 [2] | pIC50 [3] | pIC50 [4] | Molecule | other results
 |  |  |  | CC(=O)N[C@H]1CNC(=O)[C@H](Cc2ccccc2)N(C)C(=O)[C@H](CC(C)C)NC(=O)[C@H](CO)NC(=O)[C@H](CO)NC1=O (Ac-[Dap]SSL[NMeF]; lactam 1-C) | pIC50 [9]: 5.86; pIC50 [10]: 3.78
< 5.00 | < 5.00 | < 5.00 | < 5.00 | CC(=O)N[C@H]1CNC(=O)[C@H](Cc2ccccc2)NC(=O)[C@H](Cc2ccccc2)NC(=O)COCCOCCNC1=O (Ac-[Dap][AEEA]FF; lactam 1-C) | 
5.41 | 5.66 |  | 6.24 | CC(=O)N[C@H]1CNC(=O)[C@H](Cc2ccccc2)NC(=O)[C@H](Cc2ccccc2)NC(=O)CCCCCCCNC1=O (Ac-[Dap][Aoc]FF; lactam 1-C) | 
 |  |  |  | CC[C@H](C)[C@@H]1NC(=O)[C@H](Cc2ccccc2)NC(=O)[C@H](CC(=O)O)NC(=O)[C@@H](NC(=O)[C@@H](NC(=O)[C@H](CO)NC(=O)[C@H](Cc2ccc(O)cc2)NC(=O)CCCC[C@@H]2SC[C@@H]3NC(=O)N[C@@H]32)[C@@H](C)O)CSC(=O)[C@H](CCSC)NC1=O (Biotin-YSTCDFIM; thioester 4-C) | pIC50 [8]: 7.40
 |  |  |  | C[C@H](N)C(=O)N[C@@H](CO)C(=O)N[C@@H](C)C(=O)N[C@H]1CSC(=O)[C@H](Cc2ccccc2)NC(=O)[C@H](Cc2ccc(O)cc2)NC(=O)[C@H](C)NC(=O)[C@H](C)NC1=O (H-ASACAAYF; thioester 4-C) | pIC50 [11]: 8.55
 |  |  |  | C[C@H](N)C(=O)N[C@@H](CO)C(=O)N[C@@H](C)C(=O)N[C@H]1CSC(=O)[C@H](Cc2ccccc2)NC(=O)[C@H](Cc2ccc(O)cc2)NC(=O)[C@H](C)NC(=O)[C@H](CO)NC1=O (H-ASACSAYF; thioester 4-C) | pIC50 [11]: 8.68
 |  |  |  | CC(C)[C@H](NC(=O)[C@H](CO)NC(=O)[C@H](CC(=O)O)NC(=O)CN)C(=O)N[C@H]1CSC(=O)[C@H](Cc2ccccc2)NC(=O)[C@H](Cc2ccc(O)cc2)NC(=O)[C@H](CO)NC(=O)[C@H](C)NC1=O (H-GDSVCASYF; thioester 5-C) | Activity [12]: 15.6 U/mg
< 6.00 | < 6.00 | 6.52 | 7.12 | CC[C@H](C)[C@H](N)C(=O)N[C@@H](CC(N)=O)C(=O)N[C@H]1CNC(=O)[C@H](CC(C)C)NC(=O)[C@H](CC(C)C)NC(=O)[C@H](Cc2ccccc2)NC(=O)[C@H](CC(=O)O)NC1=O (H-IN[Dap]DFLL; lactam 3-C) | 
 |  |  |  | CC(C)C[C@@H]1NC(=O)[C@H](Cc2ccc(O)cc2)NC(=O)[C@H](CO)NC(=O)[C@H](C)NC(=O)[C@@H](NC(=O)[C@@H]2CCCN2C(=O)[C@H](CC(N)=O)NC(=O)[C@H](Cc2ccc(O)cc2)NC(=O)[C@H](CCCCN)NC(=O)[C@H](C)NC(=O)[C@H](C)NC(=O)[C@@H](N)CC(N)=O)CSC1=O (H-NAAKYNPCASYL; thioester 8-C) | pIC50 [11]: 7.46
 |  |  |  | CC(C)C[C@@H]1NC(=O)[C@H](Cc2ccc(O)cc2)NC(=O)[C@H](CC(N)=O)NC(=O)[C@H](CO)NC(=O)[C@@H](NC(=O)[C@@H]2CCCN2C(=O)[C@H](CC(N)=O)NC(=O)[C@H](Cc2ccc(O)cc2)NC(=O)[C@H](CCCCN)NC(=O)[C@H](CO)NC(=O)[C@H](C)NC(=O)[C@@H](N)CC(N)=O)CSC1=O (H-NASKYNPCSNYL; thioester 8-C) | pIC50 [11]: 8.02
 |  |  |  | CC(C)[C@H](NC(=O)[C@@H](N)CO)C(=O)N[C@H]1CSC(=O)[C@H](Cc2ccccc2)NC(=O)[C@H](Cc2ccc(O)cc2)NC(=O)[C@H](CO)NC(=O)[C@H](C)NC1=O (H-SVCASYF; thioester 3-C) | Activity [12]: 16.1 U/mg
8.82 | 7.86 | 9.72 | 9.67 | CC(C)C[C@@H]1NC(=O)[C@H](CC(C)C)NC(=O)[C@H](Cc2ccccc2)NC(=O)[C@H](C)NC(=O)[C@@H](N)CNC1=O (H-[Dap]AFLL; lactam 1-C) | 
6.00 | < 6.00 | < 6.00 | < 6.00 | C#CCCC(=O)N[C@H](C(=O)N[C@@H](CC(N)=O)C(=O)N[C@H]1CSC(=O)[C@H](CC(C)C)NC(=O)[C@H](CC(C)C)NC(=O)[C@H](Cc2ccccc2)NC(=O)[C@H](C)NC1=O)[C@@H](C)CC (Pent4ynoyl-INCAFLL; thioester 3-C) | 
9.59 | 9.05 | 10.02 | 9.48 | CC(C)C[C@@H]1NC(=O)[C@H](CO)NC(=O)[C@H](CO)NC(=O)CCSC(=O)[C@H](Cc2ccccc2)N(C)C1=O ([Mpa]SSL[NMeF]; thioester 1-C) | pIC50 [9]: 5.77; pIC50 [10]: 4.33
 |  |  |  | H-DSVCASYF-OH | Activity [12]: 9.8 U/mg
 |  |  |  | H-GDSVCASYF-OH | Activity [12]: 11.2 U/mg
 |  |  |  | H-SVCASYF-OH | Activity [12]: 8.9 U/mg
